Results as given in ChEMBL document CHEMBL2074443, “Association of tamoxifen biliary excretion rate with prior tamoxifen exposure and increased mdr1b expression” (Biochem Pharmacol, 2000).

Target: ATP-dependent translocase ABCB1 (Rattus norvegicus, UniProt P43245)
Assay: TP_TRANSPORTER: RT-PCR in vivo, liver of Lewis rat
Format: functional, organism-based

ATP-dependent translocase ABCB1, sequence (P43245 whole entry): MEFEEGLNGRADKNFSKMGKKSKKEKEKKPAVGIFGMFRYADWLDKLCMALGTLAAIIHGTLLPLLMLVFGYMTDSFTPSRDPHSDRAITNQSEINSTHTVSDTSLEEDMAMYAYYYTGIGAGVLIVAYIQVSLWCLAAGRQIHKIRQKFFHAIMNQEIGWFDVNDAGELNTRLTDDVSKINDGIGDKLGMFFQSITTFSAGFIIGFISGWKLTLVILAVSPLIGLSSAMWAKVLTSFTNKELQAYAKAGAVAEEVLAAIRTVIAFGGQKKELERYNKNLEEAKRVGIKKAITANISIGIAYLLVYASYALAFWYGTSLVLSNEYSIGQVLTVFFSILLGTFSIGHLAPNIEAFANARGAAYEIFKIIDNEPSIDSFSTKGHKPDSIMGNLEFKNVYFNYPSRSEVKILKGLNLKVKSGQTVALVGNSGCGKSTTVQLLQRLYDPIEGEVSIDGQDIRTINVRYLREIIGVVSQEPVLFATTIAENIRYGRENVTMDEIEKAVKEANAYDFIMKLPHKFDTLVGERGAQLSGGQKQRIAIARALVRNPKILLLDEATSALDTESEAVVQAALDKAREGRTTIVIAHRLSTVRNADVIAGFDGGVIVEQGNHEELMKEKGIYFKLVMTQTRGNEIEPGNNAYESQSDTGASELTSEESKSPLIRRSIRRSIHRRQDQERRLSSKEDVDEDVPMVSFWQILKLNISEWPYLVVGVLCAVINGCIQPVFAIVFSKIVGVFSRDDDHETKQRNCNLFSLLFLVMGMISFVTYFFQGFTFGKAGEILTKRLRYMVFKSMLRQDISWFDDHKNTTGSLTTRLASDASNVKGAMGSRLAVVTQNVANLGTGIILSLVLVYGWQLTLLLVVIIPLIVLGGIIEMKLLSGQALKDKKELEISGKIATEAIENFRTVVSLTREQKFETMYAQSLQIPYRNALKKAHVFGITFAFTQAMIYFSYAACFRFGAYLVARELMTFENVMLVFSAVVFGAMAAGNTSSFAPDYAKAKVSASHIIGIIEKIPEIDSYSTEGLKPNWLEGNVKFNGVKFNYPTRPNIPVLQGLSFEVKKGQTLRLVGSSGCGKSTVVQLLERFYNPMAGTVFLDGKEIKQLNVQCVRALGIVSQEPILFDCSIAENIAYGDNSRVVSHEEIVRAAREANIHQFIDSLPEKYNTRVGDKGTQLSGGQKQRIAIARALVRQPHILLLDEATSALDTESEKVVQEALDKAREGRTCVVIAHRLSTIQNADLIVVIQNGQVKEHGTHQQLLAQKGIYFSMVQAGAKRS

Activity: inducer [+]
SMILES: CC/C(=C(\c1ccccc1)c1ccc(OCCN(C)C)cc1)c1ccccc1 [TAMOXIFEN]
